Counter-ions that a name gives are not always drawn. ± gives the standard error.
How the values were obtained:
621-102 (TSC2-deficient) = assay: relative viability vs DMSO; higher = less cytotoxic; details: serum: 10% FBS, 72 h
621-103 (TSC2-rescued) = assay: as above; details: serum: 10% FBS, 72 h
UMB1949 (TSC2-deficient) = assay: relative viability vs DMSO (fraction); higher = less cytotoxic; details: serum: 0.1% FBS, 72 h;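 note: renal angiomyolipoma cell lines screened in 384-well plates, viability normalized per plate to DMSO-treated cells, each plate carrying 50 nM rapamycin and 1 µM staurosporine controls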

Structure (SMILES)	relative viability (621-102 (TSC2-deficient); 0.0001 µM)	relative viability (621-102 (TSC2-deficient); 0.001 µM)	relative viability (621-102 (TSC2-deficient); 0.01 µM)	relative viability (621-102 (TSC2-deficient); 0.1 µM)	relative viability (621-102 (TSC2-deficient); 1 µM)	relative viability (621-102 (TSC2-deficient); 10 µM)	relative viability (621-103 (TSC2-rescued); 0.0001 µM)	relative viability (621-103 (TSC2-rescued); 0.001 µM)	relative viability (621-103 (TSC2-rescued); 0.01 µM)	relative viability (621-103 (TSC2-rescued); 0.1 µM)	relative viability (621-103 (TSC2-rescued); 1 µM)	relative viability (621-103 (TSC2-rescued); 10 µM)	relative viability (UMB1949 (TSC2-deficient); 0.0128 nM)	relative viability (UMB1949 (TSC2-deficient); 0.064 nM)	relative viability (UMB1949 (TSC2-deficient); 0.32 nM)	relative viability (UMB1949 (TSC2-deficient); 1.6 nM)	relative viability (UMB1949 (TSC2-deficient); 8 nM)	relative viability (UMB1949 (TSC2-deficient); 40 nM)	relative viability (UMB1949 (TSC2-deficient); 200 nM)	relative viability (UMB1949 (TSC2-deficient); 1000 nM)	relative viability (UMB1949 (TSC2-deficient); 5000 nM)
CCS(=O)(=O)c1cccc(-c2cc(C(=O)NC3CCN(C)CC3)c(C)c3[nH]c4ncc(C)cc4c23)c1 [TAK-901]	94.4 ± 2%	98.3 ± 4.1%	90 ± 2.7%	75.451 ± 0.045%	45.4 ± 2%	7.72 ± 0.56%	108 ± 2.1%	97 ± 2%	81.4 ± 1.8%	72.5 ± 1.6%	28.2 ± 2.3%	5.6 ± 0.7%	0.561	0.0956	0.0821	0.0562	0.0574	0.0411	0.00479	0.00175	0.0045
COC[C@@H](c1ccc(C(F)(F)F)cc1)N1CCN(C2(C)CCN(C(=O)c3c(C)ncnc3C)CC2)C[C@@H]1C [Vicriviroc Malate]	100.4 ± 0.12%	106 ± 2.8%	113 ± 2.9%	108 ± 3.2%	100 ± 1.5%	100.24 ± 0.061%	102 ± 3.4%	99.95 ± 0.79%	101 ± 2.1%	99.04 ± 0.74%	96.3 ± 1.4%	97.62 ± 0.55%									
CC[C@]1(O)C[C@H]2CN(CCc3c([nH]c4ccccc34)[C@@](C(=O)OC)(c3cc4c(cc3OC)N(C=O)[C@H]3[C@@](O)(C(=O)OC)[C@H](OC(C)=O)[C@]5(CC)C=CCN6CC[C@]43[C@@H]65)C2)C1 [Vincristine Sulfate]	42 ± 1.8%	37.1 ± 4.2%	41.7 ± 0.87%	38.6 ± 0.59%	37 ± 0.55%	33.5 ± 1.3%	48.3 ± 0.14%	38 ± 0.93%	33.5 ± 0.55%	30.4 ± 0.59%	27.1 ± 1.3%	21.9 ± 0.84%									
CC[C@]12C=CCN3CC[C@@]4(c5cc([C@@]6(C(=O)OC)C[C@@H]7C[C@@H](C(C)(F)F)CN(Cc8c6[nH]c6ccccc86)C7)c(OC)cc5N(C)[C@H]4[C@@](O)(C(=O)OC)[C@@H]1OC(C)=O)[C@@H]32 [Vinflunine Tartrate]	91.28 ± 0.35%	96.3 ± 1.4%	64.68 ± 0.39%	44.8 ± 3.1%	32 ± 1.2%	28.9 ± 0.74%	99.3 ± 1.7%	93 ± 2.6%	66.9 ± 1.8%	34.9 ± 1.6%	29.8 ± 0.55%	23.6 ± 0.65%									
CCC1=C[C@@H]2CN(C1)Cc1c([nH]c3ccccc13)[C@@](C(=O)OC)(c1cc3c(cc1OC)N(C)[C@H]1[C@@](O)(C(=O)OC)[C@H](OC(C)=O)[C@]4(CC)C=CCN5CC[C@@]31[C@H]54)C2 [Vinorelbine(Navelbine)]	51.2 ± 1.2%	41.4 ± 1.7%	44.2 ± 2.1%	38.08 ± 0.27%	36.28 ± 0.14%	27.51 ± 0.032%	50.3 ± 2.2%	37.9 ± 1.1%	39 ± 0.6%	31.2 ± 0.92%	29.86 ± 0.072%	24.6 ± 0.88%									
O=C(CCCCCCC(=O)Nc1ccccc1)NO [Vorinostat]	117 ± 3.2%	120 ± 2.4%	114 ± 2.5%	106 ± 1.3%	91.54 ± 0.85%	63.7 ± 1.4%	101 ± 2.2%	98.74 ± 0.07%	98.14 ± 0.97%	97.94 ± 0.86%	97.19 ± 0.86%	26.6 ± 0.47%									
COC(=O)Nc1ccc(-c2nc(N3CCOCC3)c3cnn(C4CCN(C(=O)OC)CC4)c3n2)cc1 [WYE-354]	89.9 ± 1.9%	84.2 ± 1.1%	79.5 ± 4.5%	84.3 ± 5.7%	49.3 ± 3.1%	61.2 ± 3.3%	102 ± 1.1%	103.2 ± 0.11%	102 ± 1.2%	105.7 ± 1%	68.1 ± 0.21%	74.5 ± 2.2%									
COC(=O)Nc1ccc(-c2nc(N3CCOCC3)c3cnn(C4CCN(Cc5cccnc5)CC4)c3n2)cc1 [WYE-687]	97.311 ± 0.046%	102 ± 3%	99.7 ± 1.4%	100 ± 2.7%	59.1 ± 2.8%	16.2 ± 0.8%	113 ± 3.9%	115.4 ± 1.1%	113 ± 1.5%	104 ± 2.3%	55.5 ± 0.9%	23.1 ± 0.089%									
C=CC(=O)Nc1cccc(Oc2nc(Nc3ccc(N4CCN(C)CC4)cc3)ncc2Cl)c1 [WZ3146]	112 ± 3.9%	110 ± 3.5%	106 ± 2.6%	107 ± 3.3%	97 ± 2.9%	23.8 ± 5.1%	103 ± 2%	100.6 ± 0.42%	100 ± 1.1%	101 ± 1.8%	79.4 ± 1.4%	12.9 ± 0.067%									
C=CC(=O)Nc1cccc(Oc2nc(Nc3ccc(N4CCN(C)CC4)cc3OC)ncc2Cl)c1 [WZ4002]	110 ± 1.7%	100 ± 6.1%	104 ± 4.2%	101 ± 3.6%	99 ± 2%	51.6 ± 2%	100.2 ± 0.22%	101 ± 1.6%	100.1 ± 0.83%	101.6 ± 0.99%	101 ± 2.2%	32.5 ± 1.5%									
C=CC(=O)Nc1cccc(Sc2nc(Nc3ccc(N4CCN(C)CC4)cc3)ncc2Cl)c1 [WZ8040]	98.7 ± 3.8%	97.6 ± 2.1%	99.3 ± 3.3%	95.9 ± 1.6%	98 ± 3.3%	17.7 ± 4.6%	100 ± 1.2%	100 ± 1.6%	99.8 ± 1.3%	100 ± 1.5%	100.6 ± 0.89%	14.9 ± 0.36%									
Oc1nc(-c2ccc(C(F)(F)F)cc2)nc2c1CSCC2 [XAV-939]	116 ± 0.67%	112 ± 2.7%	116 ± 5.5%	120 ± 1.9%	119.9 ± 0.91%	102.42 ± 0.045%	99.56 ± 0.24%	104 ± 2.7%	102 ± 2.3%	102 ± 2%	102 ± 1.7%	102 ± 1.7%									
COc1cc2nccc(Oc3ccc(NC(=O)C4(C(=O)Nc5ccc(F)cc5)CC4)cc3)c2cc1OC [XL184]	110.1 ± 0.14%	97.1 ± 3.1%	98.8 ± 3.1%	107 ± 1.7%	107 ± 2%	99.4 ± 0.21%	97.27 ± 0.56%	98.1 ± 1.1%	96.6 ± 1.1%	98.8 ± 2.2%	98.7 ± 1.5%	81.9 ± 4.7%									
COC(=O)[C@@H]1[C@H]2C[C@H]3c4[nH]c5ccccc5c4CCN3C[C@@H]2CC[C@@H]1O [Yohimbine HCl]	106 ± 2.6%	104 ± 1.2%	104 ± 2.2%	100.9 ± 0.15%	100 ± 5.2%	100 ± 2.6%	104 ± 3.8%	105 ± 3.1%	105 ± 3.5%	97 ± 3%	99.4 ± 4.7%	96.5 ± 3.8%									
FC(F)c1nc2ccccc2n1-c1nc(N2CCOCC2)nc(N2CCOCC2)n1 [ZSTK474]	88.8 ± 4.7%	94.9 ± 1.6%	89.77 ± 0.68%	95.7 ± 2%	91.2 ± 3.4%	52.1 ± 1.8%	101 ± 2.4%	97 ± 3.6%	103.8 ± 0.79%	105.3 ± 0.49%	96.3 ± 2.2%	49.6 ± 1.3%									
Nc1ccn([C@H]2CC[C@@H](CO)O2)c(=O)n1 [Zalcitabine]	92.2 ± 0.98%	99.9 ± 1.3%	94.1 ± 2.3%	103.3 ± 0.81%	102 ± 3.1%	93.26 ± 0.69%	90.4 ± 5.7%	95.48 ± 0.79%	105 ± 1.1%	105 ± 4.4%	100.4 ± 0.83%	102 ± 1.8%									
COc1nc(C)cnc1NS(=O)(=O)c1cccnc1-c1ccc(-c2nnco2)cc1 [Zibotentan (ZD4054)]	118 ± 2.6%	100 ± 3.1%	109.9 ± 0.58%	114 ± 2.4%	105 ± 3.6%	120 ± 1.6%	103.31 ± 0.00057%	99.8 ± 1.5%	100.2 ± 0.14%	100.5 ± 0.75%	101 ± 1%	102.5 ± 0.2%									

Reference: the supplement of paper PMC8960247
